From ChEMBL document CHEMBL3525977, “Differential impact of P-glycoprotein (ABCB1) and breast cancer resistance protein (ABCG2) on axitinib brain accumulation and oral plasma pharmacokinetics” (Drug Metab Dispos, 2011)

Tests used:
[1] = system: Brain; assay: Drug level in brain of Abcg2 (-/-) FVB mouse at 10 mg/kg, po after 1 hr by liquid chromatography-tandem mass spectrometry relative to wild type FVB mouse; type: ADME, organism-based; design: dose 10 mg/kg, route oral; details: in vivo
[2] = Drug level in brain of Abcb1a/1b (-/-) FVB mouse at 10 mg/kg, po after 1 hr by liquid chromatography-tandem mass spectrometry; type: ADME, organism-based; design: dose 10 mg/kg, route oral; details: read-out: Drug uptake
[3] = AUC (0 to 1 hr) in FVB mouse plasma at 10 mg/kg, po by liquid chromatography-tandem mass spectrometry; type: ADME, organism-based; design: time < 1 hr, dose 10 mg/kg, route oral
[4] = Drug level in brain of Abcg2 (-/-) FVB mouse at 10 mg/kg, po after 4 hrs by liquid chromatography-tandem mass spectrometry; type: ADME, organism-based; design: dose 10 mg/kg, route oral; details: read-out: Drug uptake
[5] = Drug level in brain of Abcb1a/1b;Abcg2 (-/-) FVB mouse at 10 mg/kg, po after 1 hr by liquid chromatography-tandem mass spectrometry; type: ADME, organism-based; design: dose 10 mg/kg, route oral; details: read-out: Drug uptake
[6] = Drug level in brain of Abcg2 (-/-) FVB mouse at 10 mg/kg, po after 1 hr by liquid chromatography-tandem mass spectrometry; type: ADME, organism-based; design: dose 10 mg/kg, route oral; details: read-out: Drug uptake
[7] = system: Brain; assay: Drug level in brain of Abcb1a/1b (-/-) FVB mouse at 10 mg/kg, po after 1 hr by liquid chromatography-tandem mass spectrometry relative to wild type FVB mouse; type: ADME, organism-based; design: dose 10 mg/kg, route oral; details: in vivo
[8] = Drug level in brain of FVB mouse at 10 mg/kg, po after 4 hrs by liquid chromatography-tandem mass spectrometry; type: ADME, organism-based; design: dose 10 mg/kg, route oral; details: read-out: Drug uptake
[9] = target: T1, Broad substrate specificity ATP-binding cassette transporter ABCG2 (Mus musculus, UniProt Q7TMS5); assay: Drug transport in MDCK2 cells expressing mouse ABCG2 assessed as transporter-mediated efflux ratio at 1 uM after 1 to 4 hrs; type: ADME, cell-based; details: mdck2, 1 µM
T1 sequence (Q7TMS5 whole entry): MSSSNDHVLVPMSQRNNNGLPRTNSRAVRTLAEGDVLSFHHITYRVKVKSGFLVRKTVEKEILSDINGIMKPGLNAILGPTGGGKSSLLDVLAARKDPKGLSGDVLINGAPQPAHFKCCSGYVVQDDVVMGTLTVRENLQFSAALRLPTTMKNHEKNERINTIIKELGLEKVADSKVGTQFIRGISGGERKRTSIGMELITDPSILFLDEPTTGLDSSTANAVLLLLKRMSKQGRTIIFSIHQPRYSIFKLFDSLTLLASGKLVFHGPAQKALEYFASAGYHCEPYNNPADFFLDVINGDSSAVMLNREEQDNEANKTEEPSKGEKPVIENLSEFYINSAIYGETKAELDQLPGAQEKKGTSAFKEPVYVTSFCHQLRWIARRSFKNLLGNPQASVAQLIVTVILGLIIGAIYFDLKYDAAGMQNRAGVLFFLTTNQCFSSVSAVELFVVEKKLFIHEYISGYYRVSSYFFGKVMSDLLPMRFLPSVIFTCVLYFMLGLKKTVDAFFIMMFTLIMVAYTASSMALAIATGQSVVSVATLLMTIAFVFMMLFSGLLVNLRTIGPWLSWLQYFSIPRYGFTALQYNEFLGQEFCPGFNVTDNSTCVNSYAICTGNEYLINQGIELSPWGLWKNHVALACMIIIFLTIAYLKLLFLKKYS

[10] = AUC (0 to 4 hrs) in Abcg2 (-/-) FVB mouse plasma at 10 mg/kg, po by liquid chromatography-tandem mass spectrometry; type: ADME, organism-based; design: time < 4 hr, dose 10 mg/kg, route oral
[11] = Drug level in brain of FVB mouse at 10 mg/kg, po after 1 hr by liquid chromatography-tandem mass spectrometry; type: ADME, organism-based; design: dose 10 mg/kg, route oral; details: read-out: Drug uptake
[12] = AUC (0 to 4 hrs) in Abcb1a/1b (-/-) FVB mouse plasma at 10 mg/kg, po by liquid chromatography-tandem mass spectrometry; type: ADME, organism-based; design: time < 4 hr, dose 10 mg/kg, route oral
[13] = AUC (0 to 1 hr) in Abcg2 (-/-) FVB mouse plasma at 10 mg/kg, po by liquid chromatography-tandem mass spectrometry; type: ADME, organism-based; design: time < 1 hr, dose 10 mg/kg, route oral
[14] = system: Brain; assay: Drug level in brain of Abcb1a/1b;Abcg2 (-/-) FVB mouse at 10 mg/kg, po after 4 hrs by liquid chromatography-tandem mass spectrometry relative to wild type FVB mouse; type: ADME, organism-based; design: dose 10 mg/kg, route oral; details: in vivo
[15] = AUC (0 to 1 hr) in Abcb1a/1b (-/-) FVB mouse plasma at 10 mg/kg, po by liquid chromatography-tandem mass spectrometry; type: ADME, organism-based; design: time < 1 hr, dose 10 mg/kg, route oral
[16] = AUC (0 to 1 hr) in Abcb1a/1b;Abcg2 (-/-) FVB mouse plasma at 10 mg/kg, po by liquid chromatography-tandem mass spectrometry; type: ADME, organism-based; design: time < 1 hr, dose 10 mg/kg, route oral
[17] = target: ABCB1 (Homo sapiens, UniProt P08183); assay: Drug transport in MDCK2 cells expressing human ABCB1 assessed as transporter-mediated efflux ratio at 1 uM after 1 to 4 hrs; type: ADME, cell-based; details: MDCK-MDR1
[18] = Drug transport in MDCK2 cells at 1 uM after 1 to 4 hrs in presence of 5 uM ABCB1 inhibitor zosuquidar; type: ADME, cell-based, Canis lupus familiaris; details: dog, mdck-ii
[19] = AUC (0 to 4 hrs) in FVB mouse plasma at 10 mg/kg, po by liquid chromatography-tandem mass spectrometry; type: ADME, organism-based; design: time < 4 hr, dose 10 mg/kg, route oral
[20] = Drug transport in MDCK2 cells at 1 uM after 1 to 4 hrs in presence of 5 uM ABCB1/ABCG2 inhibitor elacridar; type: ADME, cell-based, Canis lupus familiaris; details: dog, mdck-ii
[21] = system: Brain; assay: Drug level in brain of Abcb1a/1b (-/-) FVB mouse at 10 mg/kg, po after 4 hrs by liquid chromatography-tandem mass spectrometry relative to wild type FVB mouse; type: ADME, organism-based; design: dose 10 mg/kg, route oral; details: in vivo
[22] = Drug level in brain of Abcb1a/1b;Abcg2 (-/-) FVB mouse at 10 mg/kg, po after 4 hrs by liquid chromatography-tandem mass spectrometry; type: ADME, organism-based; design: dose 10 mg/kg, route oral; details: read-out: Drug uptake
[23] = AUC (0 to 4 hrs) in Abcb1a/1b;Abcg2 (-/-) FVB mouse plasma at 10 mg/kg, po by liquid chromatography-tandem mass spectrometry; type: ADME, organism-based; design: time < 4 hr, dose 10 mg/kg, route oral
[24] = system: Brain; assay: Drug level in brain of Abcg2 (-/-) FVB mouse at 10 mg/kg, po after 4 hrs by liquid chromatography-tandem mass spectrometry relative to wild type FVB mouse; type: ADME, organism-based; design: dose 10 mg/kg, route oral; details: in vivo
[25] = Efflux ratio in wild type MDCK2 cells at 1 uM after 1 to 4 hrs; type: ADME, cell-based, Canis lupus familiaris, MDCK-II; details: dog, MDCK
[26] = target: T2, ABCG2 (Homo sapiens, UniProt Q9UNQ0); assay: Drug transport in MDCK2 cells expressing human ABCG2 assessed as transporter-mediated efflux ratio at 1 uM after 1 to 4 hrs; type: ADME, cell-based
T2 sequence (Q9UNQ0 whole entry): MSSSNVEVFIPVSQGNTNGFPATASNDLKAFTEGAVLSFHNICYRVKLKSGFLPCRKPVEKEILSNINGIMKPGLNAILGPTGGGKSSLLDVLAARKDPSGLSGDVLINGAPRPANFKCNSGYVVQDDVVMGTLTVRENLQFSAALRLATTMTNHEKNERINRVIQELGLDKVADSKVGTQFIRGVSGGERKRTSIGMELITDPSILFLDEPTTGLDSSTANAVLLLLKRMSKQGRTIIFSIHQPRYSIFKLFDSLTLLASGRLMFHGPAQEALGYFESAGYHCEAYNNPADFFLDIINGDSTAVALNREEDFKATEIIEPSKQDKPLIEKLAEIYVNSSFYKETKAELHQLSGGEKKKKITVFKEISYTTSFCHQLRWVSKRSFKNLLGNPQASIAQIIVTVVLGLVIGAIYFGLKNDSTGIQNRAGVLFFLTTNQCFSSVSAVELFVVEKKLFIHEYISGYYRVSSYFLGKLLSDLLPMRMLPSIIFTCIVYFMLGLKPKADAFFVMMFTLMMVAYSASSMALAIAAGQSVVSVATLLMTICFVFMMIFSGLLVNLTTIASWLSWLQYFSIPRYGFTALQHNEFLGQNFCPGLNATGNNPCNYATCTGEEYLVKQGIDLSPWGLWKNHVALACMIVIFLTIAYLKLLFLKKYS

[27] = system: Brain; assay: Drug level in brain of Abcb1a/1b;Abcg2 (-/-) FVB mouse at 10 mg/kg, po after 1 hr by liquid chromatography-tandem mass spectrometry relative to wild type FVB mouse; type: ADME, organism-based; design: dose 10 mg/kg, route oral; details: in vivo
[28] = Drug level in brain of Abcb1a/1b (-/-) FVB mouse at 10 mg/kg, po after 4 hrs by liquid chromatography-tandem mass spectrometry; type: ADME, organism-based; design: dose 10 mg/kg, route oral; details: read-out: Drug uptake

Chain of ABCB1 (P08183 whole entry): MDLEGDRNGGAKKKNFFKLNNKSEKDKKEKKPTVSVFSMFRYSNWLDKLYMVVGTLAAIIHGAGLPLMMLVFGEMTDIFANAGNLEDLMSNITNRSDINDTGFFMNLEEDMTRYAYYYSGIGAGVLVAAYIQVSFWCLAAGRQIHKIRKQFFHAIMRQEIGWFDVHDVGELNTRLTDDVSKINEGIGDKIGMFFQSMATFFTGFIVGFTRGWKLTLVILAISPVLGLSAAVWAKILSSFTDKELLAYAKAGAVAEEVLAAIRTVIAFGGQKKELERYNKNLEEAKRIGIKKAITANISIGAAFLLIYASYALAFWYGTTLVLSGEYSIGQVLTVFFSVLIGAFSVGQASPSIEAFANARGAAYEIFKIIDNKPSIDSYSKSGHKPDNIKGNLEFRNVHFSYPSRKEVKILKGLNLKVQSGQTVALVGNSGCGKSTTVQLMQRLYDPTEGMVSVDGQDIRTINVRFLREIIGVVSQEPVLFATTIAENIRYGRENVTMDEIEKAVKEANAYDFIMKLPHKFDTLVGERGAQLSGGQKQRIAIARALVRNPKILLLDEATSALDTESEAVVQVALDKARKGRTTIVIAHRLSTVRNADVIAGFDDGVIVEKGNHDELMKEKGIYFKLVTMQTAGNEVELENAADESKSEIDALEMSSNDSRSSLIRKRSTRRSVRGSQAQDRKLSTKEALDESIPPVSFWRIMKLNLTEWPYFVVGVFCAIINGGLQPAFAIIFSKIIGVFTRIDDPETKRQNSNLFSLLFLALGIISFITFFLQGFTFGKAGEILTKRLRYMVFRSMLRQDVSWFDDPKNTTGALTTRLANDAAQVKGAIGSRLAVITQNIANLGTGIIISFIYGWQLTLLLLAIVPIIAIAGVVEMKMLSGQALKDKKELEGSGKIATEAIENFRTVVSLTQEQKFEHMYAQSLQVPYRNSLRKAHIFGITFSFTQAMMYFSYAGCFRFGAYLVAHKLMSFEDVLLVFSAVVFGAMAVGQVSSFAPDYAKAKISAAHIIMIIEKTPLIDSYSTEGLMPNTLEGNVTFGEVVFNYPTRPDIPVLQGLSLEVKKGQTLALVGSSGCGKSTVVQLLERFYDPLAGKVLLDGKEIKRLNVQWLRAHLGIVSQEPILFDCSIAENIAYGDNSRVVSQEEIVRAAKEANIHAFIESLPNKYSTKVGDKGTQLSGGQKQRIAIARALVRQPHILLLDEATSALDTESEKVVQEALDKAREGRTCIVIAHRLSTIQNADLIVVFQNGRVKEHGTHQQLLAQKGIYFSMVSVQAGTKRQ

## CNC(=O)c1ccccc1Sc1ccc2c(/C=C/c3ccccn3)n[nH]c2c1 [AXITINIB]
[1]
  Ratio: 0.8
[2]
  concentration at 1 h: 640 ng/g
[3]
  AUC(0-t) at 1 h: 1090 ng·h/mL
[4]
  concentration at 4 h: 7 ng/g
[5]
  concentration at 1 h: 1980 ng/g
[6]
  concentration at 1 h: 80 ng/g
[7]
  Ratio: 6.3
[8]
  concentration at 4 h: 6 ng/g
[9]
  Ratio: 3.4
[10]
  AUC(0-t) at 4 h: 4670 ng·h/mL
[11]
  concentration at 1 h: 100 ng/g
[12]
  AUC(0-t) at 4 h: 3950 ng·h/mL
[13]
  AUC(0-t) at 1 h: 1760 ng·h/mL
[14]
  Ratio: 42.4
[15]
  AUC(0-t) at 1 h: 950 ng·h/mL
[16]
  AUC(0-t) at 1 h: 1400 ng·h/mL
[17]
  efflux ratio at 1 µM: 5.3
[18]
  Drug transport: Not Active
[19]
  AUC(0-t) at 4 h: 2680 ng·h/mL
[20]
  Drug transport: Not Active
[21]
  Ratio: 7.9
[22]
  concentration at 4 h: 250 ng/g
[23]
  AUC(0-t) at 4 h: 4950 ng·h/mL
[24]
  Ratio: 1.1
[25]
  efflux ratio at 1 µM: 1.4
[26]
  efflux ratio at 1 µM: 1.3
[27]
  Ratio: 19.6
[28]
  concentration at 4 h: 47 ng/g
